# From US7795290B2 (Genentech, Inc., priority 2004, dated 2010)
# Target: T1, AKT1 (Homo sapiens, UniProt P31749)
# T1 construct: purchased Upstate 14-276
# Test: HTS ATP-utilizing enzyme assay, off-chip mobility-shift (Caliper HTS 250)
# Type: biochemical
# Conditions: kinase named = inhibitory activity/selectivity; test compound 10 μM; active = greater than three-sigma from mean
# In short: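 AKT1 activity was measured by off-chip mobility shift (Caliper HTS 250) as the ratio of peptide substrate to phosphorylated product. Test compound was at 10 μM, with 2.5 h incubation at 20–22° C. EDTA wells served as 100% control and DMSO wells as 0%. Hits were called at three-sigma limits.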
# T1 sequence (P31749 whole entry): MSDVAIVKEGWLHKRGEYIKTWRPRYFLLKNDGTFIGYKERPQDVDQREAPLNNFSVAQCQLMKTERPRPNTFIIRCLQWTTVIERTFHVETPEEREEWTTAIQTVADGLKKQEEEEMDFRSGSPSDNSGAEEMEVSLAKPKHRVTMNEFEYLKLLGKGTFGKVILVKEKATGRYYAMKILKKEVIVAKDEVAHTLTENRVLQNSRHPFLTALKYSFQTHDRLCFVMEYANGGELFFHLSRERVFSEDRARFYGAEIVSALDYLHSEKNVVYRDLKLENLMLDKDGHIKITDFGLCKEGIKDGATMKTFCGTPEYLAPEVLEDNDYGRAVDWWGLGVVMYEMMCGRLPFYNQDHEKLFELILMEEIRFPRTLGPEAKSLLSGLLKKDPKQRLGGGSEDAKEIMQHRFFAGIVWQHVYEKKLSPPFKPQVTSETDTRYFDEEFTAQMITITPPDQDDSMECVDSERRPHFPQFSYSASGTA
row,Activity,Compound
1,AKT1,O=C(N1CCOCC1)N1CCN(CCCN(C(=O)c2cccs2)c2nc(-c3cc4ccccc4o3)cs2)CC1 [N-(4-(benzofuran-2-yl)thiazol-2-yl)-N-(3-(4-(morpholine-4-carbonyl)piperazin-1-yl)propyl)thiophene-2-carboxamide]
2,AKT1,O=C(C1CCCO1)N1CCN(CCCN(C(=O)c2cccs2)c2nc(-c3cc4ccccc4o3)cs2)CC1 (stereo not shown) [N-(4-(benzofuran-2-yl)thiazol-2-yl)-N-(3-(4-(tetrahydrofuran-2-carbonyl)piperazin-1-yl)propyl)thiophene-2-carboxamide]
3,AKT1,O=C(c1cccs1)N(CCCN1CCC(O)CC1)c1nc(-c2cc3ccccc3o2)cs1 [N-(4-(benzofuran-2-yl)thiazol-2-yl)-N-(3-(4-hydroxypiperidin-1-yl)propyl)thiophene-2-carboxamide]
4,AKT1,CN1CCN(CCCN(C(=O)c2cccs2)c2nc(-c3cc4ccccc4o3)cs2)CC1 [N-(4-(benzofuran-2-yl)thiazol-2-yl)-N-(3-(4-methylpiperazin-1-yl)propyl)thiophene-2-carboxamide]
5,AKT1,O=C(c1cccs1)N(CCCN1CCC(N2CCOCC2)CC1)c1nc(-c2cc3ccccc3o2)cs1 [N-(4-(benzofuran-2-yl)thiazol-2-yl)-N-(3-(4-morpholinopiperidin-1-yl)propyl)thiophene-2-carboxamide]
6,AKT1,CCN(CC)CCCN(C(=O)c1cccs1)c1nc(-c2cc3ccccc3o2)cs1 [N-(4-(benzofuran-2-yl)thiazol-2-yl)-N-(3-(diethylamino)propyl)thiophene-2-carboxamide]
7,AKT1,O=C(c1cccs1)N(CCCN1CCCCC1)c1nc(-c2cc3ccccc3o2)cs1 [N-(4-(benzofuran-2-yl)thiazol-2-yl)-N-(3-(piperidin-1-yl)propyl)thiophene-2-carboxamide]
8,AKT1,O=C(CCN(C(=O)c1cccs1)c1nc(-c2cc3ccccc3o2)cs1)N1CCOCC1 [N-(4-(benzofuran-2-yl)thiazol-2-yl)-N-(3-morpholino-3-oxopropyl)thiophene-2-carboxamide]
9,AKT1,O=C(C1CCC1)N(CCCN1CCOCC1)c1nc(-c2cc3ccccc3o2)cs1 [N-(4-(benzofuran-2-yl)thiazol-2-yl)-N-(3-morpholinopropyl)cyclobutanecarboxamide]
10,AKT1,O=C(c1ccco1)N(CCCN1CCOCC1)c1nc(-c2cc3ccccc3o2)cs1 [N-(4-(benzofuran-2-yl)thiazol-2-yl)-N-(3-morpholinopropyl)furan-2-carboxamide]
11,AKT1,O=C(c1cccnc1)N(CCCN1CCOCC1)c1nc(-c2cc3ccccc3o2)cs1 [N-(4-(benzofuran-2-yl)thiazol-2-yl)-N-(3-morpholinopropyl)nicotinamide]
12,AKT1,O=C(c1ccccn1)N(CCCN1CCOCC1)c1nc(-c2cc3ccccc3o2)cs1 [N-(4-(benzofuran-2-yl)thiazol-2-yl)-N-(3-morpholinopropyl)picolinamide]
13,AKT1,O=C(c1cccs1)N(CCCN1CCOCC1)c1nc(-c2cc3ccccc3o2)cs1 [N-(4-(benzofuran-2-yl)thiazol-2-yl)-N-(3-morpholinopropyl)thiophene-2-carboxamide]
14,AKT1,O=C(CCN(C(=O)c1cccs1)c1nc(-c2cc3ccccc3o2)cs1)N1CCNCC1 [N-(4-(benzofuran-2-yl)thiazol-2-yl)-N-(3-oxo-3-(piperazin-1-yl)propyl)thiophene-2-carboxamide]
15,AKT1,O=C(CCN(C(=O)c1cccs1)c1nc(-c2cc3ccccc3o2)cs1)N1CCSC1 [N-(4-(benzofuran-2-yl)thiazol-2-yl)-N-(3-oxo-3-(thiazolidin-3-yl)propyl)thiophene-2-carboxamide]

# Second part, the molecule before the results:
row,Compound,Activity
1,"CN(CC(O)CO)C(=O)CCN(C(=O)c1cccs1)c1nc(-c2cc3ccccc3o2)cs1 (stereo not shown) [N-(4-(benzofuran-2-yl)thiazol-2-yl)-N-(3-((2,3-dihydroxypropyl)(methyl)amino)-3-oxopropyl)thiophene-2-carboxamide]",AKT1
2,CN(C)CCN(C)C(=O)CCN(C(=O)c1cccs1)c1nc(-c2cc3ccccc3o2)cs1 [N-(4-(benzofuran-2-yl)thiazol-2-yl)-N-(3-((2-(dimethylamino)ethyl)(methyl)amino)-3-oxopropyl)thiophene-2-carboxamide],AKT1
3,CN(CCC#N)C(=O)CCN(C(=O)c1cccs1)c1nc(-c2cc3ccccc3o2)cs1 [N-(4-(benzofuran-2-yl)thiazol-2-yl)-N-(3-((2-cyanoethyl)(methyl)amino)-3-oxopropyl)thiophene-2-carboxamide],AKT1
4,CN(CCO)C(=O)CCN(C(=O)c1cccs1)c1nc(-c2cc3ccccc3o2)cs1 [N-(4-(benzofuran-2-yl)thiazol-2-yl)-N-(3-((2-hydroxyethyl)(methyl)amino)-3-oxopropyl)thiophene-2-carboxamide],AKT1
5,O=C(CCN(C(=O)c1cccs1)c1nc(-c2cc3ccccc3o2)cs1)N(CCO)CCO [N-(4-(benzofuran-2-yl)thiazol-2-yl)-N-(3-(bis(2-hydroxyethyl)amino)-3-oxopropyl)thiophene-2-carboxamide],AKT1
6,O=C(c1cccs1)N(CCC(=O)N(CCCCO)C1CCCCC1)c1nc(-c2cc3ccccc3o2)cs1 [N-(4-(benzofuran-2-yl)thiazol-2-yl)-N-(3-(cyclohexyl(4-hydroxybutyl)amino)-3-oxopropyl)thiophene-2-carboxamide],AKT1
7,O=C(CCN(C(=O)c1cccs1)c1nc(-c2cc3ccccc3o2)cs1)NCc1ccoc1 [N-(4-(benzofuran-2-yl)thiazol-2-yl)-N-(3-(furan-3-ylmethylamino)-3-oxopropyl)thiophene-2-carboxamide],AKT1
8,"CC(C)CN(C(=O)CCN(C(=O)c1cccs1)c1nc(-c2cc3ccccc3o2)cs1)C1CCS(=O)(=O)C1 (stereo not shown) [N-(4-(benzofuran-2-yl)thiazol-2-yl)-N-(3-(isobutyl(1,1-dioxo-tetrahydrothiophen-3-yl)amino)-3-oxopropyl)thiophene-2-carboxamide]",AKT1
9,O=C(CCN(C(=O)c1cccs1)c1nc(-c2cc3ccccc3o2)cs1)N1Cc2ccccc2C1 [N-(4-(benzofuran-2-yl)thiazol-2-yl)-N-(3-(isoindolin-2-yl)-3-oxopropyl)thiophene-2-carboxamide],AKT1
10,CNCCN(C)C(=O)CCN(C(=O)c1cccs1)c1nc(-c2cc3ccccc3o2)cs1 [N-(4-(benzofuran-2-yl)thiazol-2-yl)-N-(3-(methyl(2-(methylamino)ethyl)amino)-3-oxopropyl)thiophene-2-carboxamide],AKT1
11,CN(C(=O)CCN(C(=O)c1cccs1)c1nc(-c2cc3ccccc3o2)cs1)c1ccncc1 [N-(4-(benzofuran-2-yl)thiazol-2-yl)-N-(3-(methyl(pyridin-4-yl)amino)-3-oxopropyl)thiophene-2-carboxamide],AKT1
12,O=C(CCN(C(=O)c1cccs1)c1nc(-c2cc3ccccc3o2)cs1)NCCOc1ccccc1 [N-(4-(benzofuran-2-yl)thiazol-2-yl)-N-(3-oxo-3-(2-phenoxyethylamino)propyl)thiophene-2-carboxamide],AKT1
13,O=C1CN(C(=O)CCN(C(=O)c2cccs2)c2nc(-c3cc4ccccc4o3)cs2)CCN1 [N-(4-(benzofuran-2-yl)thiazol-2-yl)-N-(3-oxo-3-(3-oxopiperazin-1-yl)propyl)thiophene-2-carboxamide],AKT1
